From EP0964864B1, “PYRIDO 2,3-D PYRIMIDINES AND 4-AMINOPYRIMIDINES AS INHIBITORS OF CELLULAR PROLIFERATION” (priority 1997, dated 1998)

Experiments:
[1] = molecular target: PDGF-β receptor tyrosine kinase; assay: PDGF receptor tyrosine kinase assay; assay type: biochemical, mouse
[2] = molecular target: FGF-1 (flg) receptor tyrosine kinase; assay: FGF receptor tyrosine kinase assay; assay type: biochemical, human

IC50 [1]: 3.7 µM
IC50 [2]: 4.5 µM
Compound: CCNc1nc(Nc2ccccc2)ncc1C=CC(=O)OCC [Example 17, Ethyl 3-(4-Ethylamino-2-phenylamino-pyrimidin-5-yl)acrylate]
